# Assay results taken from PMC9757636, “The effectiveness of newly synthesized quaternary ammonium salts differing in chain length and type of counterion against priority human pathogens” (Scientific Reports, 2022).
# Marks after values point to notes of the source that are not given here.
# Legend:
# P. aeruginosa PAO1 [1] = experiment: Adhesion to polystyrene plate; format: cell-based, Pseudomonas aeruginosa; settings: concentration not given
# Method: Adhesion analysis to polystyrene surfaces was determined according to the method of Rodrigues et al. with modifications. Polystyrene 96-well plates were incubated with the respective compound concentrations (10–1280 µM) for 4 h at 37 °C with 100 rpm shaking. The plates were then washed with miliQ and inoculated with 100 µL of bacterial suspension (OD = 0.4–0.6). Plates were incubated for 6 h at 37 °C with 100 rpm shaking. Wells were rinsed and fixed for 20 min at 60 °C. They were then […] with 0.1% crystal violet solution for 5 min. The wells were washed with miliQ until the unfixed dye was completely eluted. The absorbance at λ = 590 nm was measured using a reader (Bio-Rad Universal Hood II). The positive control was a surface not treated with QAS. Three independent trials were performed.
# P. aeruginosa PAO1 [2] = experiment: Adhesion to stainless steel; format: cell-based, Pseudomonas aeruginosa; settings: Pseudomonas aeruginosa, PAO1, read-out: inhibition of adhesion to stainless steel
# P. aeruginosa PAO1 [3] = experiment: Adhesion to glass; format: cell-based, Pseudomonas aeruginosa; settings: concentration not given
# S. aureus MRSA R98 = experiment: MIC/MBC microdilution; format: cell-based, Staphylococcus aureus
# S. aureus ATCC 6538 = experiment: MIC/MBC microdilution; format: cell-based, Staphylococcus aureus; settings: S. aureus ATCC 6538
# S. epidermidis B374 [4] = experiment: MIC/MBC microdilution; format: cell-based, Staphylococcus epidermidis; settings: S. epidermidis B374
# S. epidermidis SI8 = experiment: MIC/MBC microdilution; format: cell-based, Staphylococcus epidermidis
# [5] = tested on: S. epidermidis ATCC 35984; experiment: MIC/MBC microdilution; format: cell-based, Staphylococcus epidermidis
# P. aeruginosa PAO1 [6] = experiment: MIC/MBC microdilution; format: cell-based, Pseudomonas aeruginosa
# P. aeruginosa ATCC 27853 = experiment: MIC/MBC microdilution; format: cell-based, Pseudomonas aeruginosa; settings: P. aeruginosa ATCC 27853
# [7] = tested on: Salmonella typhimurium TA100; experiment: Mutagenicity (Ames test); format: cell-based; settings: for Number of colonies: ± SD
# In short: (§1)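 His-deficient TA98 and TA100 strains were plated with test compound on Davis minimal medium and incubated 48 h at 37 °C before revertant colonies were counted. Mutagenicity ratio is revertants with compound over spontaneous revertants (untreated control); MR ≥ 1.7 is read as mutagenic. Three replicate runs.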
# [8] = tested on: Salmonella typhimurium TA98; experiment: Mutagenicity (Ames test); format: cell-based; settings: for Number of colonies: ± SD
# In short: as §1
# [9] = tested on: S. epidermidis ATCC 35984; experiment: Adhesion to stainless steel; format: cell-based, Staphylococcus epidermidis; settings: 160 µM
# S. epidermidis B374 [10] = experiment: Adhesion to stainless steel; format: cell-based, Staphylococcus epidermidis; settings: Staphylococcus epidermidis, 1280 µM, ranges given over several strains
# [11] = tested on: S. epidermidis ATCC 35984 biofilm; experiment: Biofilm eradication; format: cell-based, Staphylococcus epidermidis; settings: 10 µM, 4 h
# Method: (§2) Biofilm eradication assay was performed according to the method of Christensen et al. with modifications. A standardized bacterial (OD = 0.6) suspension of 100 µL was spotted into a 96-well polystyrene plate. They were incubated for 24 h at 37 °C. Cultures were removed, the plate was washed and then concentrations of QAS ([…]) were added, incubated for 4 h at 37 °C with 100 rpm shaking. The wells were washed with miliQ and fixed at 60 °C for 20 min. The wells were […] with 0.1% crystal violet solution for 5 min. The wells were washed with miliQ until the unfixed dye was completely eluted. The absorbance at λ = 590 nm was measured using a reader (Bio-Rad Universal Hood II). The positive control was an untreated biofilm. Three independent test trials were performed.
# S. epidermidis B374 [12] = experiment: Adhesion to polystyrene plate; format: cell-based, Staphylococcus epidermidis; settings: 160 µM
# [13] = tested on: S. epidermidis ATCC 35984; experiment: Adhesion to polystyrene plate; format: cell-based, Staphylococcus epidermidis; settings: concentration not given
# [14] = tested on: P. aeruginosa PAO1 biofilm; experiment: Biofilm eradication; format: cell-based, Pseudomonas aeruginosa; settings: 20 µM, 4 h
# Method: as §2
# [15] = Critical micelle concentration by conductometric measurements; format: physicochemical; settings: aqueous solution, 25 °C
# In short: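 Specific conductivity of at least 15 concentrations per cationic surfactant measured at constant 25 °C without temperature compensation, conductometer calibrated with KCl standards. CMC taken as the discontinuity point in the conductivity vs concentration plot.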
# E. coli ATCC 11229 = experiment: MIC/MBC microdilution; format: cell-based, Escherichia coli; settings: E. coli ATCC 11229
# E. coli H64 = experiment: MIC/MBC microdilution; format: cell-based, Escherichia coli; settings: E. coli H64
# [16] = 24 h, 37 °C, >90% growth inhibition
compound,measurement,setting,value
CCCCCCCCCCCCCCCC(=O)N(C)CCC[N+](C)(C)C.[Br-] [BrC16],reduction of adhesion to polystyrene,P. aeruginosa PAO1 [1],did not reduce the adhesion
same,inhibition at 1280 µM,P. aeruginosa PAO1 [2],17 to 22%
same,reduction of adhesion to glass,P. aeruginosa PAO1 [3],approximately 20%
same,Minimal bactericidal concentration (*MBC),S. aureus MRSA R98; 99.9% reduction,320 *320 µM
same,Minimal inhibitory concentration (MIC),S. aureus MRSA R98; [16],320 *320 µM
same,Minimal bactericidal concentration (*MBC),S. aureus ATCC 6538; 99.9% reduction,320 *320 µM
same,Minimal inhibitory concentration (MIC),S. aureus ATCC 6538; [16],320 *320 µM
same,Minimal bactericidal concentration (*MBC),S. epidermidis B374 [4]; 99.9% reduction,10 *10 µM
same,Minimal inhibitory concentration (MIC),S. epidermidis B374 [4]; [16],10 *10 µM
same,Minimal bactericidal concentration (*MBC),S. epidermidis SI8; 99.9% reduction,10 *10 µM
same,Minimal inhibitory concentration (MIC),S. epidermidis SI8; [16],10 *10 µM
same,Minimal bactericidal concentration (*MBC),[5]; 99.9% reduction,640 *640 µM
same,Minimal inhibitory concentration (MIC),[5]; [16],640 *640 µM
same,Minimal bactericidal concentration (*MBC),P. aeruginosa PAO1 [6]; 99.9% reduction,> 1280 * > 1280 µM
same,Minimal inhibitory concentration (MIC),P. aeruginosa PAO1 [6]; [16],> 1280 * > 1280 µM
same,Minimal bactericidal concentration (*MBC),P. aeruginosa ATCC 27853; 99.9% reduction,> 1280 * > 1280 µM
same,Minimal inhibitory concentration (MIC),P. aeruginosa ATCC 27853; [16],> 1280 * > 1280 µM
same,mutagenicity index (MR),"[7]; base pair substitution type mutations, MR >= 1.7 indicates mutagenic potential",< 1.7
same,Number of colonies,[7]; ¼ MIC,151.3 ± 3.5
same,Mutagenicity index,[7]; ½ MIC,1.06
same,Number of colonies,[7]; ½ MIC,134 ± 1
same,mutagenicity index (MR),"[8]; reading frame shift type mutation, MR >= 1.7 indicates mutagenic potential",above 1.7
same,Mutagenicity index,[8]; ¼ MIC,2.76
same,Number of colonies,[8]; ¼ MIC,70.5 ± 12
same,Mutagenicity index,[8]; ½ MIC,1.84
same,Number of colonies,[8]; ½ MIC,47 ± 14.1
same,reduction of adhesion to stainless steel,[9],77%
same,inhibition at 1280 µM,S. epidermidis B374 [10],17 to 22%
same,biofilm destruction,[11],approximately 40%
same,reduction of adhesion to polystyrene,S. epidermidis B374 [12],approximately 85%
same,reduction of adhesion to polystyrene,[13],did not reduce the adhesion
same,biofilm eradication,[14],50–60%
same,CMC,[15],0.00073 mol/L
same,MBC,"E. coli ATCC 11229; 99.9% reduction, read-out: Minimal bactericidal concentration (*MBC)",1280 µM
same,MIC,"E. coli ATCC 11229; 24 h, 37 °C, >90% growth inhibition, read-out: Minimal inhibitory concentration (MIC)",640 µM
same,Minimal bactericidal concentration (*MBC),E. coli H64; 99.9% reduction,160 *160 µM
same,Minimal inhibitory concentration (MIC),E. coli H64; [16],160 *160 µM
